Assay results as given in the supplement of paper PMC10307832.

How the values were obtained:
Assay in all cases: relative viability (nuclei count vs DMSO), 5 days (fraction); higher = more cells survive
XMD13-2 + Bortezomib = compound: C1CC1C(=O)NC2=NNC3=C2C=CC(=C3)C4=CC(=CC=C4)C(=O)NC5CC5 [XMD13-2] + CC(C)C[C@H](NC(=O)[C@H](Cc1ccccc1)NC(=O)c1cnccn1)B(O)O [Bortezomib] (partner 0.002 µM)
Summary of the method: (§1)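 Nuclei were stained with Hoechst during a one-step fixation (final 0.05% Triton X-100, 1% formaldehyde, 1 ug/ml Hoechst) carried out 5 days after dosing, then counted on 4× images. The cells, lung cancer lines in 1536-well plates, had been dosed by pin tool the day after seeding with one drug alone or a fixed anchor-drug dose plus five library-drug doses (not always all listed) in √10 steps. Relative viability is the nuclei count in treated wells divided by that in vehicle wells, and each value is the median of duplicate plates.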

XMD13-2 + Tozasertib = compound: C1CC1C(=O)NC2=NNC3=C2C=CC(=C3)C4=CC(=CC=C4)C(=O)NC5CC5 [XMD13-2] + Cc1cc(Nc2cc(N3CCN(C)CC3)nc(Sc3ccc(NC(=O)C4CC4)cc3)n2)n[nH]1 [Tozasertib] (partner 0.1 µM)
Summary of the method: as §1

XMD13-2 + Olaparib = compound: C1CC1C(=O)NC2=NNC3=C2C=CC(=C3)C4=CC(=CC=C4)C(=O)NC5CC5 [XMD13-2] + O=C(c1cc(Cc2n[nH]c(=O)c3ccccc23)ccc1F)N1CCN(C(=O)C2CC2)CC1 [Olaparib] (partner 8 µM)
Summary of the method: as §1

Dasatinib + OSI-027 = compound: Cc1nc(Nc2ncc(C(=O)Nc3c(C)cccc3Cl)s2)cc(N2CCN(CCO)CC2)n1 [Dasatinib] + COc1cccc2cc(-c3nc([C@H]4CC[C@H](C(=O)O)CC4)n4ncnc(N)c34)[nH]c12 [OSI-027] (partner 0.5 µM)
Summary of the method: as §1

Q: What does the source list for UMC-11?
A: relative viability (XMD13-2 + Bortezomib; first compound 0.05 µM): 0.737; relative viability (XMD13-2 + Bortezomib; first compound 0.1581 µM): 0.896; relative viability (XMD13-2 + Bortezomib; first compound 0.5 µM): 0.825; relative viability (XMD13-2 + Bortezomib; first compound 1.581 µM): 0.587; relative viability (XMD13-2 + Bortezomib; first compound 5 µM): 0.981; relative viability (XMD13-2 + Tozasertib; first compound 0.05 µM): 0.188; relative viability (XMD13-2 + Tozasertib; first compound 0.1581 µM): 0.197; relative viability (XMD13-2 + Tozasertib; first compound 0.5 µM): 0.197; relative viability (XMD13-2 + Tozasertib; first compound 1.581 µM): 0.204; relative viability (XMD13-2 + Tozasertib; first compound 5 µM): 0.192; relative viability (XMD13-2 + Olaparib; first compound 0.05 µM): 0.528; relative viability (XMD13-2 + Olaparib; first compound 0.1581 µM): 0.407; relative viability (XMD13-2 + Olaparib; first compound 0.5 µM): 0.39; relative viability (XMD13-2 + Olaparib; first compound 1.581 µM): 0.364; relative viability (XMD13-2 + Olaparib; first compound 5 µM): 0.318; relative viability (Dasatinib + OSI-027; first compound 0.005 µM): 0.459; relative viability (Dasatinib + OSI-027; first compound 0.01581 µM): 0.375; relative viability (Dasatinib + OSI-027; first compound 0.05 µM): 0.413; relative viability (Dasatinib + OSI-027; first compound 0.1581 µM): 0.329; relative viability (Dasatinib + OSI-027; first compound 0.5 µM): 0.264
